Data on 4 compounds can be found in ChEMBL document CHEMBL3734726, “An abietane diterpene from Salvia cuspidata and some new derivatives are active against Trypanosoma cruzi” (Bioorg Med Chem Lett, 2015).

In brackets after ≈: the same amount, converted by molar mass. Activity calls are given as the source filed them. No cut-off for these calls is given here.

Data set [1] concerns Trypanosoma cruzi. Nature of the data set: Antitrypanosomal activity against epimastigote stage of Trypanosoma cruzi Dm28c assessed as parasite viability at 1 ug/ml after 24 hrs by eosin exclusion based hemocytometry. Type of data set: functional.
In data set [2] the test system is Trypanosoma cruzi. The data set can be described thus: Antitrypanosomal activity against epimastigote stage of Trypanosoma cruzi Dm28c assessed as parasite viability at 10 ug/ml after 24 hrs by eosin exclusion based hemocytometry. It is filed as functional.
Data set [3] in a line: Cytotoxicity against african green monkey Vero cells assessed as cell viability at 1 ug/ml after 24 hrs by eosin staining based microscopy. Conditions: chlorocebus sabaeus, read-out: Activity.
Data set [4] can be described thus: Cytotoxicity against african green monkey Vero cells assessed as cell viability at 10 ug/ml after 24 hrs by eosin staining based microscopy. The note with it: chlorocebus sabaeus, read-out: Activity.
The test system of data set [5] is Trypanosoma cruzi. Nature of the data set: Antitrypanosomal activity against epimastigote stage of Trypanosoma cruzi Dm28c assessed as parasite viability at 5 ug/ml after 24 hrs by eosin exclusion based hemocytometry. Type of data set: functional.
Data set [6] has as its system Trypanosoma cruzi. The data set can be described thus: Antitrypanosomal activity against epimastigote stage of Trypanosoma cruzi Dm28c assessed as parasite viability at 2 ug/ml after 24 hrs by eosin exclusion based hemocytometry. Type of data set: functional.
Data set [7] in a line: Cytotoxicity against african green monkey Vero cells assessed as cell viability at 2 ug/ml after 24 hrs by eosin staining based microscopy. Conditions: chlorocebus sabaeus, read-out: Activity.
The nature of data set [8]: Cytotoxicity against african green monkey Vero cells assessed as cell viability at 5 ug/ml after 24 hrs by eosin staining based microscopy. Conditions: chlorocebus sabaeus, read-out: Activity.
The subject of data set [9] is Trypanosoma cruzi. Nature of the data set: Trypanocidal activity against epimastigote stage of Trypanosoma cruzi Dm28c assessed as induction of vacuolization at 5 ug/ml after 48 hrs by lead citrate staining based microscopy. Type of data set: functional, organism-based.
The test system of data set [10] is Trypanosoma cruzi. Nature of the data set: Antitrypanosomal activity against epimastigote stage of Trypanosoma cruzi Dm28c assessed as reduction in parasite viability at after 24 hrs by eosin exclusion based hemocytometry. Type of data set: functional, organism-based.

Broadly, the IC50 is the concentration that gives 50% inhibition.

Regarding `C=CCOC1=C(C(C)C)C(=O)C2=C(C1=O)[C@]13CCC[C@](C)(C(=O)OC1)[C@@H]3C=C2`, the Parasite viability with Trypanosoma cruzi [1] is 85.5%; in the data set with Trypanosoma cruzi [2], 18.3%; in the data set on Trypanosoma cruzi [5], 29.5%; in the data set with Trypanosoma cruzi [6], 65.5%. Moreover, the viability at 24 h, 1 ug/ml in [3] amounted to 99.8%. Also, in data set [4], the viability at 24 h, 10 ug/ml worked out at 85.5%. Also, the viability at 24 h, 2 ug/ml in data set [7] amounted to 99.6%. In addition, the viability at 24 h, 5 ug/ml in data set [8] came to 99.1%.
In the case of `CC(C)C1=C(O)C(=O)C2=C(C=C[C@@H]3[C@]24CCC[C@]3(C)C(=O)OC4)C1=O`, in the data set with Trypanosoma cruzi [9], the result was Active. Besides, the Parasite viability in the data set on Trypanosoma cruzi [1] stood at 99.2%; in the data set with Trypanosoma cruzi [2] it was 16.3%; in the data set with Trypanosoma cruzi [5], 49.7%; in the data set with Trypanosoma cruzi [6], 76.4%. For the same compound, the IC50 in the data set with Trypanosoma cruzi [10] was 5 µg/mL (≈ 14.6 µM). Moreover, in data set [3], the viability at 24 h, 1 ug/ml was 99.2%. Besides, in data set [4], the viability at 24 h, 10 ug/ml amounted to 88.4%. Further, in data set [7], the viability at 24 h, 2 ug/ml stood at 99.5%. The viability at 24 h, 5 ug/ml in data set [8] was 98.8%.
For the compound `CC(=O)OC1=C(C(C)C)C(=O)C2=C(C1=O)[C@]13CCC[C@](C)(C(=O)OC1)[C@@H]3C=C2`, the Parasite viability in the data set with Trypanosoma cruzi [1] came to 99.2%; in the data set on Trypanosoma cruzi [2], 16.3%; in the data set with Trypanosoma cruzi [5], 39.5%; in the data set with Trypanosoma cruzi [6] it was 89.5%. The viability at 24 h, 1 ug/ml in [3] was determined as 99.8%. The viability at 24 h, 10 ug/ml in [4] was 92.4%. Further, the viability at 24 h, 2 ug/ml in data set [7] was 99.7%. In data set [8], the viability at 24 h, 5 ug/ml was determined as 99.2%.
Take `CC(C)C1=C(O[Si](C)(C)C)C(=O)C2=C(C=C[C@@H]3[C@]24CCC[C@]3(C)C(=O)OC4)C1=O`: the Parasite viability in the data set on Trypanosoma cruzi [1] worked out at 85.5%; with Trypanosoma cruzi [2], 15.3%; in the data set on Trypanosoma cruzi [5], 29.5%; in the data set with Trypanosoma cruzi [6], 49.5%. Moreover, the IC50 with Trypanosoma cruzi [10] turned out to be 2 µg/mL (≈ 4.82 µM). The viability at 24 h, 1 ug/ml in [3] worked out at 99.7%. Besides, the viability at 24 h, 10 ug/ml in data set [4] stood at 83.6%. For the same compound, in data set [7], the viability at 24 h, 2 ug/ml turned out to be 99.6%. For the same compound, in data set [8], the viability at 24 h, 5 ug/ml worked out at 99.1%.
